# Test results taken from article PMC8330742, “New benzothieno[2,3-c]pyridines as non-steroidal CYP17 inhibitors: design, synthesis, anticancer screening, apoptosis induction, and in silico ADME profile studies” (Journal of Enzyme Inhibition and Medicinal Chemistry, 2021).
# Read-outs that look alike come from different tables or passages of the source.
# Tests used:
# MDA-MB-468 = assay: NCI-60 SRB screen; type: cell-based, human; details: Homo sapiens, single dose 10^−5 M, read-out: Growth inhibition (%)
# OVCAR-5 = assay: NCI-60 SRB screen; type: cell-based, human; details: Homo sapiens, single dose 10^−5 M, read-out: Growth inhibition (%)
# T-47D = assay: NCI-60 SRB screen; type: cell-based, human; details: Homo sapiens, T47D, single dose 10^−5 M, read-out: Growth inhibition (%)
# BT-549 = assay: NCI-60 SRB screen; type: cell-based, human; details: Homo sapiens, single dose 10^−5 M, read-out: Growth inhibition (%)
# LOX IMVI = assay: NCI-60 SRB screen; type: cell-based, human; details: Homo sapiens, single dose 10^−5 M, read-out: Growth inhibition (%)
# MCF7 = assay: NCI-60 SRB screen; type: cell-based, human; details: Homo sapiens, read-out: Growth inhibition (%)
# HCC-2998 = assay: NCI-60 SRB screen; type: cell-based, human; details: Homo sapiens, single dose 10^−5 M, read-out: Growth inhibition (%)
# DU-145 = assay: NCI-60 SRB screen; type: cell-based, human; details: Homo sapiens, single dose 10^−5 M, read-out: Growth inhibition (%)
# [1] = tested on: prostate cancer cell line (PC-3); assay: MTT cytotoxicity assay; type: cell-based, human
# Procedure: (§1) The MTT method for monitoring in vitro cytotoxicity was used with multiwell plates. Three human cell lines, namely prostate cancer cell line (PC-3), renal cancer cell line (UO-31), and breast cancer cell line (MCF-7) were obtained from the American Type Culture Collection ATCC, Manassas, VA, USA). The cells were trypsinized and seeded in 96 well plates with a density of 1.2 − 1.8 × 10,000 cells/well for 24 h at 37 °C. After treating the cells with five concentrations of compound 5c (0.01, 0.1, 1, 10, 100 µM), an MTT solution (Sigma Co., St. Louis, MO, USA) (5 mg/mL in phosphate buffer solution) was applied to each well and […]. The plates were cultivated in 5% CO2 for 4 h at 37 °C. Successively, the remaining formazan crystals were dissolved in 100 µl of DMSO, and the absorbance was determined with the ROBONIK P2000 spectrophotometer at a wavelength of 570 nm. The obtained values were analysed using Gen5 software (BioTek, UK). The proliferation percentage in each treated cell line was standardised based on their control wells. Both tests have been conducted in triplicate. The IC50 values were calculated using sigmoidal dose-response curve fitting models. […] Each test included a blank containing a complete medium without cells.
# [2] = tested on: breast cancer cell line (MCF-7); assay: MTT cytotoxicity assay; type: cell-based, human
# Procedure: as §1
# [3] = tested on: renal cancer cell line (UO-31); assay: MTT cytotoxicity assay; type: cell-based, human
# Procedure: as §1
# A498 = assay: NCI-60 SRB screen; type: cell-based, human; details: Homo sapiens, single dose 10^−5 M, read-out: Growth inhibition (%)
# PC-3 = assay: NCI-60 SRB screen; type: cell-based, human; details: Homo sapiens, single dose 10^−5 M, read-out: Growth inhibition (%)
# MDA-MB-231/ATCC = assay: NCI-60 SRB screen; type: cell-based, human; details: Homo sapiens, single dose 10^−5 M, read-out: Growth inhibition (%)
# RPMI-8226 = assay: NCI-60 SRB screen; type: cell-based; details: Homo sapiens, single dose 10^−5 M, read-out: Growth inhibition (%)
# U251 = assay: NCI-60 SRB screen; type: cell-based, human; details: Homo sapiens, U-251; single dose 10^−5 M; U251, CNS cancer; read-out: Growth inhibition (%)
# SNB-75 = assay: NCI-60 SRB screen; type: cell-based, human; details: Homo sapiens; single dose 10^−5 M; SNB-75, CNS cancer; read-out: Growth inhibition (%)
# SNB-19 = assay: NCI-60 SRB screen; type: cell-based; details: Homo sapiens; single dose 10^−5 M; SNB-19, CNS cancer; read-out: Growth inhibition (%)
# SF-539 = assay: NCI-60 SRB screen; type: cell-based, human; details: Homo sapiens; single dose 10^−5 M; SF-539, CNS cancer; read-out: Growth inhibition (%)
# [4] = single dose 10^−5 M, MCF-7, Breast cancer
Structure (SMILES),melting point,inhibition at 10 µM (U251),"inhibition at 10 µM (MDA-MB-468; MDA-MB-468, Breast cancer)",inhibition at 10 µM (SNB-75),"inhibition at 10 µM (OVCAR-5; OVCAR-5, Ovarian cancer)",inhibition at 10 µM (T-47D; Breast cancer),"inhibition at 10 µM (BT-549; BT-549, Breast cancer)",inhibition at 10 µM (LOX IMVI; Melanoma),inhibition at 10 µM (MCF7; [4]),"inhibition at 10 µM (HCC-2998; HCC-2998, Colon cancer)","inhibition at 10 µM (DU-145; DU-145, Prostate cancer)","inhibition at 10 µM (A498; A498, Renal cancer)","inhibition at 10 µM (RPMI-8226; RPMI-8226, Leukaemia)",inhibition at 10 µM (SNB-19),"inhibition at 10 µM (PC-3; PC-3, Prostate cancer)",inhibition at 10 µM (SF-539),"inhibition at 10 µM (MDA-MB-231/ATCC; MDA-MB 231/ATCC, Breast cancer)",other results
"COc1ccc(C2NC(=O)C(C#N)c3c2sc2c(F)cccc32)c(OC)c1 (stereo not shown) [Compound 5a, 1-(2,4-Dimethoxyphenyl)-4-cyano-8-fluoro-1,2-dihydro[1]benzothieno [2,3-c]pyridin-3(4H)-one]",100 to 102 °C,,,,,,,,,,,,,,,,,"inhibition at 10 µM (MDA-MB-468; MDA-MB-468): 75.7%; inhibition at 10 µM (OVCAR-5; OVCAR-5): 1.24%; inhibition at 10 µM (T-47D): 38.3%; inhibition at 10 µM (BT-549; BT-549): 78.6%; inhibition at 10 µM (LOX IMVI): 60.3%; inhibition at 10 µM (MCF7; MCF-7, single dose 10^−5 M): 75.5%; inhibition at 10 µM (HCC-2998; HCC-2998): 11.7%; inhibition at 10 µM (DU-145; DU-145): 9.51%; potency compared to staurosporine [1]: moderate activity; potency compared to staurosporine [2]: moderate activity; potency compared to staurosporine [3]: weak activity; inhibition at 10 µM (A498; A498): 74.8%; inhibition at 10 µM (PC-3; PC-3): 43.2%; inhibition at 10 µM (MDA-MB-231/ATCC; MDA-MB-231, MDAMB231/ATCC): 27.3%"
"COc1ccc(C2NC(=O)C(C#N)c3c2sc2c(F)cccc32)cc1 (stereo not shown) [Compound 5b, 4-Cyano-8-fluoro-1-(4-methoxyphenyl)-1,2-dihydro[1]benzothieno[2,3-c] pyridin-3(4H)-one]",103 to 105 °C,,,,,,,,,,,,,,,,,"inhibition at 10 µM (MDA-MB-468; MDA-MB-468): 66.3%; inhibition at 10 µM (OVCAR-5; OVCAR-5): 14.4%; inhibition at 10 µM (T-47D): 19.9%; inhibition at 10 µM (BT-549; BT-549): 44.6%; inhibition at 10 µM (LOX IMVI): 54.4%; inhibition at 10 µM (MCF7; MCF-7, single dose 10^−5 M): 67.4%; inhibition at 10 µM (HCC-2998; HCC-2998): 8.46%; inhibition at 10 µM (DU-145; DU-145): 35.2%; potency compared to staurosporine [1]: moderate activity; potency compared to staurosporine [2]: moderate activity; potency compared to staurosporine [3]: moderate activity; inhibition at 10 µM (A498; A498): 68.8%; inhibition at 10 µM (RPMI-8226; RPMI-8226): 36.9%; inhibition at 10 µM (PC-3; PC-3): 50.6%; inhibition at 10 µM (MDA-MB-231/ATCC; MDA-MB-231, MDAMB231/ATCC): 28.8%"
"N#CC1=C(Cl)NC(c2cccc([N+](=O)[O-])c2)c2sc3c(F)cccc3c21 (stereo not shown) [Compound 7b, 3-Chloro-4-cyano-8-fluoro-1-(3-nitrophenyl)-1,2-dihydro[1]benzothieno [2,3-c]pyridine]",140 to 142 °C,-7.36%,-7.25%,8.28%,-3.54%,-9.14%,-2.93%,1.46%,8.22%,-18.2%,-14.2%,19.7%,12.7%,-0.67%,3.5%,3.78%,7.25%,
"O=[N+]([O-])c1cccc(C2NC(N3CCOCC3)=C(Cl)c3c2sc2c(F)cccc32)c1 (stereo not shown) [Compound 8b, 4-Chloro-3-(4-morpholino)-8-fluoro-1-(3-nitrophenyl)-1,2-dihydro [1]benzothieno[2,3-c]pyridine]",175 to 177 °C,6.85%,1.73%,10.4%,8.49%,20.8%,4.09%,8.33%,21%,-13.5%,-1.71%,10.4%,16.2%,1.4%,14.5%,6.36%,18.8%,
"O=[N+]([O-])c1cccc(C2NC(N3CCCCC3)=C(Cl)c3c2sc2c(F)cccc32)c1 (stereo not shown) [Compound 8c, 4-Chloro-3-(piperidin-1-yl)-8-fluoro-1-(3-nitrophenyl)-1,2-dihydro [1]benzothieno[2,3-c]pyridine]",241 to 243 °C,-7.81%,-13.9%,22.4%,-1.61%,17.5%,-10.5%,-0.7%,23.3%,-6.85%,-12.5%,,8.74%,-3.36%,11.9%,-6.63%,13.9%,
"N#CC1=C(N2CCCCC2)NC(c2cccc([N+](=O)[O-])c2)c2sc3c(F)cccc3c21 (stereo not shown) [Compound 8f, 4-Cyano-3-(piperidin-1-yl)-8-fluoro-1-(3-nitrophenyl)-1,2-dihydro [1]benzothieno[2,3-c]pyridine]",280 to 282 °C,-6.11%,-8.03%,5.45%,5.19%,2.45%,1.03%,2.61%,-0.95%,-23.2%,-8.32%,-0.87%,14.9%,1.38%,8.87%,6.49%,15.1%,
"O=[N+]([O-])c1cccc(C2NC3=C(Nc4ccccc4N3)c3c2sc2c(F)cccc32)c1 (stereo not shown) [Compound 9, 9-Fluoro-7-(3-nitrophenyl)-5,6,7,13-tetrahydro[1]benzothieno[3′,2′:4,5]-pyrido[2,3-b]quinoxaline]",160 to 162 °C,-3.59%,-10.6%,10.2%,3.15%,-5.91%,5.02%,3.13%,1.91%,-17.5%,-11.4%,-0.12%,12.1%,-0.03%,7.47%,3.93%,17.8%,
